Tests used:
MEF cells [1] = assay: Effects of medium components, growth factors and serum on iPS reprogramming efficiency (Oct4-GFP FACS); assay type: cell-based, mouse; settings: for effect on the induction of the iPS reprogramming process: added to iPS-SF1 without bFGF, four factors, Oct4-GFP at day 7
Description: The main method for quantifying reprogramming efficiency is FACS analysis for Oct4-GFP positive cells. Based on the results of the timing process, the infected MEF cells were digested with trypsin at days 7 and 9 after infection and then analyzed through FACSCalibur. GFP positive cells received the gates of control signals from PE pathway, and 15,000 events were recorded as a minimum. Cells infected with pMXs-FLAG were used as negative control. In order to verify the efficiency as analyzed by FACS, GFP positive colonies were counted directly under a fluorescence microscope at day 14 after infection. LIF, N2, and bFGF in iPS-SF1 medium as listed in Table 1 were deleted respectively, or N2 and bFGF were added into DMEM+10% KOSR (i.e., containing no growth factor but containing NEAA, L-Glutamine or other ingredients at the same time, called as bKSR hereinafter) medium at concentrations equivalent to that of iPS-SF1 respectively, in order to detect the effects of LIF, N2, bFGF on the iPS reprogramming efficiency of MEF cells transfected with the four factors. […] In order to verify whether other tyrosine kinases and estrogens can play a role in inducing reprogramming of iPS cells in the medium of the present invention, after MEF cells were infected with the four-factor viruses, the following media were used instead, wherein the blank control was iPS-SF1 without bFGF, the experimental group was the blank medium (i.e., iPS-SF1 without bFGF) supplemented with various receptor tyrosine kinases (including basic fibroblast growth factor bFGF, epidermal growth factor EGF, vascular endothelial growth factor VEGF, insulin-like growth factor 2 IGF2, and estradiol), and a serum medium (FBS) was used as the negative control of this experiment.

MEF cells [2] = assay: Screening compounds in the iPS process in iPS-SF1 medium (relative GFP efficiency by FACS); assay type: cell-based, mouse; settings: iPS-SF1, four factors, day 7; for enhancement of the efficiency of iPS reprogramming (relative GFP efficiency): TSA 20 nM, VPA 1 mM; for effect on the efficiency of iPS reprogramming (relative GFP efficiency): PD0325901 1 μM, CHIR99021 3 μM, SU5402 2 μM
Description: The main method for quantifying reprogramming efficiency is FACS analysis for Oct4-GFP positive cells. Based on the results of the timing process, the infected MEF cells were digested with trypsin at days 7 and 9 after infection and then analyzed through FACSCalibur. GFP positive cells received the gates of control signals from PE pathway, and 15,000 events were recorded as a minimum. Cells infected with pMXs-FLAG were used as negative control. In order to verify the efficiency as analyzed by FACS, GFP positive colonies were counted directly under a fluorescence microscope at day 14 after infection.
20,000 MEF cells were plated in each well of a twelve-well plate. The medium was iPS-SF1. Then, the cells were infected with viruses as described above in order to be transfected with the four factors. The compounds as shown in FIG. 6 were added into the medium at the following concentrations respectively: PD0325901 (1 μM), CHIR99021 (3 μM), SU5402 (2 μM, EMDbiosciences), Y-27632 (10 μM), vitamin E (25 μM, Sigma), vitamin A (1 μM, Sigma), A83-01 (0.5 μM, EMD), SB203580 (2 μM), Dorspmorphin (3 μM, Sigma), PFF-α (10 μM), TSA (20 nM, Sigma), VPA (1 mM, EMD), JAK inhibitor (0.3 μM, EMD), 5aza-DC (1 μM, Sigma), BIX01294 (1 μM), Bayk8644 (2 μM, EMD).
At day 7 after infection, cells were collected for FACS analysis as described above, and the relative GFP efficiency was measured. […] However, under conditions using the medium of the present invention, the compounds that had been previously reported as favorable to self-renewal of mouse embryonic stem cells, such as PD0325901, CHIR99021, and SU5402 reduced the efficiency of iPS reprogramming.

Compound | effect on the induction of the iPS reprogramming process (MEF cells [1]) | effect on the efficiency of iPS reprogramming (relative GFP efficiency) (MEF cells [2]) | also measured
C[C@]12CC[C@@H]3c4ccc(O)cc4CC[C@H]3[C@@H]1CC[C@@H]2O [estrogen, estradiol] | comparable effects |  | 
CCCC(CCC)C(=O)O [VPA] |  |  | enhancement of the efficiency of iPS reprogramming (relative GFP efficiency) (MEF cells [2]): 100%
Cc1c[nH]c(/C=C2\C(=O)Nc3ccccc32)c1CCC(=O)O [SU5402] |  | reduced | 
CC(/C=C/C(=O)NO)=C\[C@@H](C)C(=O)c1ccc(N(C)C)cc1 [TSA] |  |  | enhancement of the efficiency of iPS reprogramming (relative GFP efficiency) (MEF cells [2]): 100%
vascular endothelial growth factor [VEGF] | comparable effects |  | 
insulin-like growth factor 2 [IGF2] | comparable effects |  | 
epidermal growth factor (NSDSECPLSHDGYCLHDGVCMYIEALDKYACNCVVGYIGERCQYRDLKWWELR; Epidermal growth factor; UniProt P01133 971-1023, looked up) [EGF] | comparable effects |  | 
basic fibroblast growth factor [bFGF] |  |  | effects on iPS reprogramming efficiency (MEF cells [1]; component added to bKSR or deleted from iPS-SF1, four factors, day 7): even higher than those of LIF
O=C(NOC[C@H](O)CO)c1ccc(F)c(F)c1Nc1ccc(I)cc1F [PD0325901] |  | reduced | 
Cc1c[nH]c(-c2cnc(NCCNc3ccc(C#N)cn3)nc2-c2ccc(Cl)cc2Cl)n1 [CHIR99021] |  | reduced | 

Reference: US20120100568A1, “SERUM-FREE MEDIUM FOR INDUCING PLURIPOTENT STEM CELLS QUICKLY WITH HIGH EFFICIENCY AND METHOD USING THEREOF” (GUANGZHOU INSTITUTES OF BIOMEDICINE AND HEALTH, CHINESE …, priority 2009, published 2012)
